Source: patent publication US20210221822A1, “TRICYCLIC DERIVATIVES INHIBITOR, PREPARATION METHOD, AND APPLICATIONS THEREOF” (Jiangsu Hansoh Pharmaceutical Group Co., Ltd., priority 2018, published 2021)

Key:
[1] = molecular target: T1, PI3Kα (Homo sapiens, UniProt P42336); test: ADP-Glo lipid kinase assay, PI3Kα kinase activity; type: biochemical
T1 construct: purchased Promega V1721
Method in brief: (§1)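 ADP-Glo luminescence measured ADP formed by PI3Kα, β, γ or δ (0.1-2 nM working solution) with PIP2:3PS (50 μM added solution) and ATP in HEPES/MgCl2/NaCl/BSA buffer, 90 to 120 min at room temperature. % inhibition was set against DMSO and no-kinase controls, and IC50 came from a four-parameter fit.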

[2] = molecular target: T2, PI3Kβ (Homo sapiens, UniProt P42338); test: ADP-Glo lipid kinase assay, PI3Kβ kinase activity; type: biochemical; settings: 0.4 nM enzyme, 90 min, 100 μM ATP
T2 construct: purchased Carna 11-102
Method in brief: as §1

[3] = molecular target: T3, PI3Kγ (Homo sapiens, UniProt P48736); test: ADP-Glo lipid kinase assay, PI3Kγ kinase activity; type: biochemical; settings: 0.4 nM enzyme, 120 min, 50 μM ATP
T3 construct: purchased Thermofisher PV4786
Method in brief: as §1

[4] = molecular target: T4, PI3Kδ (Homo sapiens, UniProt O00329); test: ADP-Glo lipid kinase assay, PI3Kδ kinase activity; type: biochemical; settings: 0.1 nM enzyme, 90 min, 100 μM ATP
T4 construct: purchased Carna 11-103
Method in brief: as §1

[5] = test system: PI3Kα mutant cancer cells HCC1954 (H1047R); test: Cell Titer-Glo proliferation inhibition, HCC1954; type: cell-based; settings: Homo sapiens, 48 to 96 hours
Experimental: (§2) Experimental method: The proliferation inhibitory effect of the compounds of the examples on PI3Kα mutant cancer cell lines HCC1954, HGC-27 and MKN1 was determined by Cell Titer-Glo method. The cell lines were cultured in RPMI 1640 medium (Gibco #22400089) containing 10% FBS (Gibco #10091148) and 1% P/S (Hyclone #SV30010) at 37° C. and 5% CO2. Before the experiment, the cells were collected and counted, and then the cell density was adjusted. The cells were inoculated in a white 96-well plate (Corning #3610) at a density of 1000 to 10000 cells/well, and incubated in an incubator at 37° C., 5% CO2 overnight. The compound solution of different concentrations was added, and corresponding vehicle control was set at the same time. The cell plate was further incubated in an incubator at 37° C., 5% CO2 for 48 to 96 hours. The cell plate and its content were equilibrated to room temperature. 20 to 100 μL of Cell Titer-Glo solution (Promega #G7573) was added to each well, and the plate was shaked well and incubated at room temperature in the dark for 5 to 30 minutes. The chemiluminescence value was measured by the BioTek SynergyH1 microplate reader.
(§3) The percentage inhibition data of the well treated by the compounds of the examples was calculated through the vehicle control well on the plate {% inhibition rate=100−(test compound value/vehicle control value)×100}. The IC50 value was calculated by fitting the data of different concentrations and corresponding percentage inhibition rates to a four-parameter nonlinear logic formula with GraphPad prism.

[6] = test system: PI3Kα mutant cancer cells MKN1 (E545K); test: Cell Titer-Glo proliferation inhibition, MKN1; type: cell-based; settings: Homo sapiens, MKN-1, 48 to 96 hours
Experimental: as §2, §3

[7] = test system: PI3Kα mutant cancer cells HGC-27 (E542K); test: Cell Titer-Glo proliferation inhibition, HGC-27; type: cell-based; settings: Homo sapiens, 48 to 96 hours
Experimental: as §2, §3

T1 sequence (P42336 whole entry): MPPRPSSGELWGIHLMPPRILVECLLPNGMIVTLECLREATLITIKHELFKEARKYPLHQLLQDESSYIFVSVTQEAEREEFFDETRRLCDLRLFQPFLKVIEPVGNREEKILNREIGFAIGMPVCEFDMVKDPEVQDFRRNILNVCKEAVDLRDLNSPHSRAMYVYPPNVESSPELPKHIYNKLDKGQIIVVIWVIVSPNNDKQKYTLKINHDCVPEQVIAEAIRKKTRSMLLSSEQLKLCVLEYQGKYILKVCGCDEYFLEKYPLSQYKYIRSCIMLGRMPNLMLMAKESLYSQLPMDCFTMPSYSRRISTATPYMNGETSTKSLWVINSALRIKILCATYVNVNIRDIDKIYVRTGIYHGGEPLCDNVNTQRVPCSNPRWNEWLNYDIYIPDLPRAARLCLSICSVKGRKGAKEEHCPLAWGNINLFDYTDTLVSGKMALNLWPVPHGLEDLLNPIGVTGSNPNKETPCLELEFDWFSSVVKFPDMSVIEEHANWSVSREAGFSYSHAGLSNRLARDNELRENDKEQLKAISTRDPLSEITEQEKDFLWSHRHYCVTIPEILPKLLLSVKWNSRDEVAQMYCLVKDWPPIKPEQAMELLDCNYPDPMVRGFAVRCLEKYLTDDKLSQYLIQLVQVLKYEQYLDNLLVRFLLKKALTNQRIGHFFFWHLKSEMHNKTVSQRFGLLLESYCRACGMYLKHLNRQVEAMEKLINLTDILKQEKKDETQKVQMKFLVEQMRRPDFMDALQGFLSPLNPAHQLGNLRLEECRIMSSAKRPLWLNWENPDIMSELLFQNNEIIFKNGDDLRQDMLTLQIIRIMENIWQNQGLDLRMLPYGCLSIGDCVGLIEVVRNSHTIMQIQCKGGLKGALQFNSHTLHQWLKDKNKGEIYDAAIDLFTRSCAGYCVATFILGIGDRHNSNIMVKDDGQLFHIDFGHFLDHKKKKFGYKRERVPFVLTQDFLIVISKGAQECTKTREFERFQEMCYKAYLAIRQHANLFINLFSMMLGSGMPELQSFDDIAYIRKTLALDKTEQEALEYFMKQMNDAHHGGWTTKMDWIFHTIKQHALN
T1 sequence (P27986 whole entry partner): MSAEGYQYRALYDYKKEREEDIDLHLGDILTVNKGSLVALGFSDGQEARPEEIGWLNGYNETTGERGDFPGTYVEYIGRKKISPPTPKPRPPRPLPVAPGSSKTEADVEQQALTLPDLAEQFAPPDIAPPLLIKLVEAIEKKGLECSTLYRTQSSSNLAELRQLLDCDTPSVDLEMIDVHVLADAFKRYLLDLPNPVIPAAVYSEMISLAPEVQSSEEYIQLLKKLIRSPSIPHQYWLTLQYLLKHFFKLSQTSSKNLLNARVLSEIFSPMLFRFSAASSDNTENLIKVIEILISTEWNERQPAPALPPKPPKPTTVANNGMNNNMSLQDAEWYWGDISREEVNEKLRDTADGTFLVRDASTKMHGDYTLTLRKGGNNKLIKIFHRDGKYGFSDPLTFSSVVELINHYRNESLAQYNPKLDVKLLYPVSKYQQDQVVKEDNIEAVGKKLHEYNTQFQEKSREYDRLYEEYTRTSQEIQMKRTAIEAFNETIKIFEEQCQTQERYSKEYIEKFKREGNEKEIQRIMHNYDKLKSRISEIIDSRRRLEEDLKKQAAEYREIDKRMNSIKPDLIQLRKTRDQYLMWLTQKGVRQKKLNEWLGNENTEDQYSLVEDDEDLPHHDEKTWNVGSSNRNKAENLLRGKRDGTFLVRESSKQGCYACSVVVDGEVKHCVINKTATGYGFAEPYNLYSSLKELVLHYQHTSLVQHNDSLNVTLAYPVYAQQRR
T3 sequence (P48736 whole entry): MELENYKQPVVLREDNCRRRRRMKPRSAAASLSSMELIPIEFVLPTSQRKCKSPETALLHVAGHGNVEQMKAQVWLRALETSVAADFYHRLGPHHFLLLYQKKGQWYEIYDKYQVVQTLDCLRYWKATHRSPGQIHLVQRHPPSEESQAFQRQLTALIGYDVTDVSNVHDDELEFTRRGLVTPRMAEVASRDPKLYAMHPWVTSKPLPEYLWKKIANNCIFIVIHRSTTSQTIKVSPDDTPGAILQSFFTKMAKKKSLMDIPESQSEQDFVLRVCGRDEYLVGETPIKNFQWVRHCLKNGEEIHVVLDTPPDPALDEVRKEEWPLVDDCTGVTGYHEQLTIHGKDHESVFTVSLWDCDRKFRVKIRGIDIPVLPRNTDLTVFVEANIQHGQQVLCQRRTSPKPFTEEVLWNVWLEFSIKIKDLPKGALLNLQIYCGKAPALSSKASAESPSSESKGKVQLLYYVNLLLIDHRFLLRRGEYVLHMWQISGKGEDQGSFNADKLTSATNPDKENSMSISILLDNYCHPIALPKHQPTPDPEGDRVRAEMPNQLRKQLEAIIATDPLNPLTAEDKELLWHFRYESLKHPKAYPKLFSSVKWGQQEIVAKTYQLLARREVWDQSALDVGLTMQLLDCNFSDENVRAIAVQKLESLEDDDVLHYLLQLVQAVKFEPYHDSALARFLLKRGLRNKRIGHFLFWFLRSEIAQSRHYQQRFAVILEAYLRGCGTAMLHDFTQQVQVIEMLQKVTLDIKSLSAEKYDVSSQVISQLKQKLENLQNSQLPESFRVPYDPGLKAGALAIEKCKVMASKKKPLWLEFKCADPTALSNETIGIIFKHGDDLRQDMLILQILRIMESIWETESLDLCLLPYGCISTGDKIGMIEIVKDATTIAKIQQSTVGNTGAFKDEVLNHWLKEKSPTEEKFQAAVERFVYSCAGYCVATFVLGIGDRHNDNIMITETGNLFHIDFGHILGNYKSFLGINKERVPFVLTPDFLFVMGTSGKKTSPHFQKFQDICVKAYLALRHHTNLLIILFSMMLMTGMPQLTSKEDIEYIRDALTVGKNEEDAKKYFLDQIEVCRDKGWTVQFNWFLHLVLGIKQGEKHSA
T4 sequence (O00329 whole entry): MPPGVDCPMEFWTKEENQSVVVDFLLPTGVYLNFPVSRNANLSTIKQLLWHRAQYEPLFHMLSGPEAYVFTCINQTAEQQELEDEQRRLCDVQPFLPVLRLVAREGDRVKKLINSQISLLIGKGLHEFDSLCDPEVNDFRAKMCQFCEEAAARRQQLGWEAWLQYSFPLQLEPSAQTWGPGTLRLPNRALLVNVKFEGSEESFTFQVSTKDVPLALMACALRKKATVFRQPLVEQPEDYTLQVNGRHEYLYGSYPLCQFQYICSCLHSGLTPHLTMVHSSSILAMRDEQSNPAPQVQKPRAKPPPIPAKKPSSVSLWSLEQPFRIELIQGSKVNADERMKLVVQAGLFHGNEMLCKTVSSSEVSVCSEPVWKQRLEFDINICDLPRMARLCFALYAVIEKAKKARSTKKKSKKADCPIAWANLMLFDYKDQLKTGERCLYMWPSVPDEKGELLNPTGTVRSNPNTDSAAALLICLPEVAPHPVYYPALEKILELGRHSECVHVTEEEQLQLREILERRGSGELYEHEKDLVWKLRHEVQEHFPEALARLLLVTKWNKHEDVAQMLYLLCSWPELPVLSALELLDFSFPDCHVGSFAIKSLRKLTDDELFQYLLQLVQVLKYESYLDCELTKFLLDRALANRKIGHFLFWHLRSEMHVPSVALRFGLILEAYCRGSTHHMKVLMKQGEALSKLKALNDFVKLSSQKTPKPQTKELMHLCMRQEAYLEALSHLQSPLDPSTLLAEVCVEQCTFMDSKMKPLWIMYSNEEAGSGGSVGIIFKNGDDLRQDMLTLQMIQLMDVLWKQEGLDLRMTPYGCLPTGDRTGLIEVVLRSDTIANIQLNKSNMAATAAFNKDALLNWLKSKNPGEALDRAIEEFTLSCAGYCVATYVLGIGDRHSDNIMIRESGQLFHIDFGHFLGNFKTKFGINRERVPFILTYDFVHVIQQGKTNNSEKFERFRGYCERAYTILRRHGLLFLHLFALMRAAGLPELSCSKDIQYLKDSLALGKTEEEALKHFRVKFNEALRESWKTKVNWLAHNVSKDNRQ
T4 sequence (P27986 whole entry partner): as the sequence (P27986 whole entry partner) above
T2 sequence (P42338 whole entry): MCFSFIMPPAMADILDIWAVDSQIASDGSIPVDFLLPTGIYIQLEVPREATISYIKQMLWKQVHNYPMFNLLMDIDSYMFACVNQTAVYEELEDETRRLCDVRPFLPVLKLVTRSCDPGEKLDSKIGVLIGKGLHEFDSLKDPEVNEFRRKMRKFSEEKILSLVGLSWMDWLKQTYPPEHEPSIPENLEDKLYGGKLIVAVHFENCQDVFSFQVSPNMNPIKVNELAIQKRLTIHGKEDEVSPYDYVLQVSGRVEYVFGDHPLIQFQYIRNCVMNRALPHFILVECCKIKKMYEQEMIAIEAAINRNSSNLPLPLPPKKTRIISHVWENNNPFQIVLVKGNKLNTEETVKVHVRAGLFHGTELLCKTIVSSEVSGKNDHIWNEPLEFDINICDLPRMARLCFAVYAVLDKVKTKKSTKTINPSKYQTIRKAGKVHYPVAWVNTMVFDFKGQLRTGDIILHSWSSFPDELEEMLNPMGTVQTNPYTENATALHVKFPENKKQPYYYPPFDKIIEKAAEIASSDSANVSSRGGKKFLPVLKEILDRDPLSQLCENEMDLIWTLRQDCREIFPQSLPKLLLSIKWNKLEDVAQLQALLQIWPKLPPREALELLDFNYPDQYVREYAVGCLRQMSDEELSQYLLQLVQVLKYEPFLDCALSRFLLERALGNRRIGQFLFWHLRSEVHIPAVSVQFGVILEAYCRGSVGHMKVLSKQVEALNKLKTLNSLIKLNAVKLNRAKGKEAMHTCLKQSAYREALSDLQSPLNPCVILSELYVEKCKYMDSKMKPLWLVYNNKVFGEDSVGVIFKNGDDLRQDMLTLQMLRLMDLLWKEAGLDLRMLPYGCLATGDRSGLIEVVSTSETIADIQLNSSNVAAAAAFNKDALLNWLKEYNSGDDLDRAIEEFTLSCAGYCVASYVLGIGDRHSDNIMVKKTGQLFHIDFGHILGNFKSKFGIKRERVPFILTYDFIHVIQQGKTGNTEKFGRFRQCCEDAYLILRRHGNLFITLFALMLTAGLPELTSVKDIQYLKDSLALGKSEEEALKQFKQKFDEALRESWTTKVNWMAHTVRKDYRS
T2 sequence (P27986 whole entry partner): as the sequence (P27986 whole entry partner) above

- IC50 ([1]; ADP-Glo, 0.1 nM enzyme, 120 min, 50 μM ATP): 2.4 nM
- Selectivity of PI3Kα vs PI3Kβ ([1]; ratio of IC50 PI3Kβ to IC50 PI3Kα): 170
- Selectivity of PI3Kα vs PI3Kγ ([1]; ratio of IC50 PI3Kγ to IC50 PI3Kα): 48
- Selectivity of PI3Kα vs PI3Kδ ([1]; ratio of IC50 PI3Kδ to IC50 PI3Kα): 30
- IC50 [2]: 407 nM
- IC50 [3]: 116 nM
- IC50 [4]: 71 nM
- IC50 [5]: 134 nM
- IC50 [6]: 304 nM
- IC50 [7]: 358 nM
Compound: C[C@H](Nc1ccc2c(c1)OCCn1cc(N3C(=O)SC[C@H]3CC#N)nc1-2)C(N)=O [Example 119, (S)-2-((2-((R)-4-(cyanomethyl)-2-oxothiazolidin-3-yl)-5,6-dihydrobenzo[f]imidazo[1,2-d][1,4]oxazepin-9-yl)amino)propanamide]
